# In US4816438A, “Insulin-selective somatostatin analogs” (The Salk Institute for Biological Studies, priority 1987, dated 1989):
# Where a SMILES comes first, the peptide text is derived from it. Bridges are numbered along the chain shown (N, C = ends).
# Key:
# [1] = synthetic SS-28; literature report; cited from earlier work
# [2] = system: cells of rat pituitary glands; experiment: in vitro radioimmunoassays of growth hormone release from cultured rat pituitary cells, side-by-side with somatostatin-14; type: cell-based; conditions: comparative testing in rat pituitary cell cultures
# Method: To determine the effectiveness of the peptides to inhibit the release of insulin, in vitro radioimmunoassays are carried out using aSS-28, [Lys^23 ]-aSS-28 and aSS(15-28) in side-by-side comparison with equimolar concentrations of somotostatin-14 having a known effectiveness to inhibit the release of growth hormone induced by the application of isobutyl methyl xanthine to pituitary cells. Cultures are used which include cells of rat pituitary glands removed some four to five days previously in a system that minimizes enzymatic degradation, generally following the procedure set forth in Vale et al., Methods in Enzymology, Hormones and Cyclic Nucleotides (1975) Vol. 37, p. 82. Both cultures of a defined standard medium and cultures which are considered optimal for the secretion of growth hormone, as a result of having additions of either 2% or 10% of serum from a foetal calf, are used for the comparative testing.
Compound,potency when administered in vivo [1],biological activity / potency relative to aSS-28 [2]
somatostatin-28 [SS-28],increased potency,
CC(C)C[C@H](NC(=O)[C@H](CC(N)=O)NC(=O)[C@H](CC(N)=O)NC(=O)[C@@H](NC(=O)[C@H](CO)NC(=O)[C@H](CC(=O)O)NC(=O)[C@@H](NC(=O)[C@@H](N)CO)C(C)C)[C@@H](C)O)C(=O)N1CCC[C@H]1C(=O)N1CCC[C@H]1C(=O)N[C@@H](CCCNC(=N)N)C(=O)N[C@@H](CCC(=O)O)C(=O)N[C@@H](CCCNC(=N)N)C(=O)N[C@@H](CCCCN)C(=O)N[C@@H](C)C(=O)NCC(=O)N[C@H]1CSSC[C@@H](C(=O)O)NC(=O)[C@H](CO)NC(=O)[C@H]([C@@H](C)O)NC(=O)[C@H](Cc2ccccc2)NC(=O)CNC(=O)[C@H](CCCCN)NC(=O)[C@H](Cc2c[nH]c3ccccc23)NC(=O)[C@H](Cc2ccc(O)cc2)NC(=O)[C@H](Cc2ccccc2)NC(=O)[C@H](CC(N)=O)NC(=O)[C@H](CCCCN)NC1=O [[Lys^23]-aSS-28] (H-SVDSTNNLPPRERKAGCKNFYWKGFTSC-OH; disulfide 17-28),,similarly biologically active although having somewhat lower potencies
